Results from PubChem BioAssay (NCI).
Several values for one entry are separate records, joined by “and”; a condition that tells them apart may be missing. Equal values may be shown once.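 Values below derive from 48-hour exposures of cells grown in 96-well plates, with endpoints linearly interpolated between the two concentrations bracketing the appropriate inhibition level. GI50 is the concentration that inhibits growth by half. Definition used: TGI = concentration required for complete inhibition of growth.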

Tests used:
Test in all cases: DTP human tumour cell line panel, 48 h
HL-60(TB) leukemia = tested on: HL-60(TB) leukemia
HOP-62 NSCLC = tested on: HOP-62 NSCLC
CAKI-1 renal = tested on: CAKI-1 renal
SW-620 colon = tested on: SW-620 colon
HCT-15 colon = tested on: HCT-15 colon
M14 melanoma = tested on: M14 melanoma
KM12 colon = tested on: KM12 colon
CCRF-CEM leukemia = tested on: CCRF-CEM leukemia
OVCAR-4 ovarian = tested on: OVCAR-4 ovarian
EKVX NSCLC = tested on: EKVX NSCLC

SMILES	TGI (HL-60(TB) leukemia) [µM]	TGI (HOP-62 NSCLC) [µM]	TGI (CAKI-1 renal)	TGI (SW-620 colon)	TGI (HCT-15 colon)	TGI (M14 melanoma) [µM]	TGI (KM12 colon)	TGI (CCRF-CEM leukemia)	TGI (OVCAR-4 ovarian) [µM]	TGI (EKVX NSCLC) [µM]	GI50 (HOP-62 NSCLC)	GI50 (EKVX NSCLC) [µM]	GI50 (M14 melanoma) [µM]	GI50 (KM12 colon)	GI50 (CAKI-1 renal) [µM]	GI50 (SW-620 colon) [µM]	GI50 (HCT-15 colon) [µM]	GI50 (CCRF-CEM leukemia) [µM]	GI50 (OVCAR-4 ovarian) [µM]
COC(=O)C1=CC2OC13CC1CCC3(C2=O)C1(C)C (stereo not drawn)	23.1	48.1	7.37 µM	19.4 µM	18.9 µM	28.3	30.6 µM	14.6 µM	23.3										
COC1CC2CCC(C)[C@](O)(O2)C(=O)C(=O)N2CCCCC2C(=O)OC(C(C)CC2CCC(O)C(OC)C2)CC(=O)C(C)C=C(C)C(OC(=O)CN(C)C)C(OC)C(=O)C(C)CC(C)/C=C/C=C/C=C\1C (stereo partly drawn)	6.38	19.3		21.9 µM	22.6 µM	23	23.1 µM	5.42 µM		20.3									
Nc1ccn([C@@H]2C=C(CO)[C@@H](O)[C@H]2O)c(=O)n1			4.52 µM and 4.16 µM and 22.2 µM	303 µM and > 625 µM	483 µM and > 625 µM		500 µM and > 625 µM	294 µM and > 625 µM		134	0.0593 µM and 0.0749 µM	2.77	0.329	0.16 µM and 0.0625 µM					
CCN(CC)CCOc1cc2c(C(=O)OC)c(C)oc2cc1C(C)=O			31.2 µM	23.9 µM	22.7 µM	16.9	21.1 µM	7.59 µM		22.1		8.75	4.53	4.45 µM	14.2	7.56	10.5	2.92	
CC1C(=O)N(C)C2(CO)C(=O)O[C@H](C)C12O (stereo partly drawn)		> 100	> 100 µM		> 100 µM	> 100	> 100 µM		> 100	> 100									
ON(CCc1ccccn1)Cc1ccccc1		> 100	> 100 µM	> 100 µM	> 100 µM	> 100	> 100 µM		> 100	> 100									
O=C1c2ccccc2C(=O)c2nc(-c3ccccc3)c(-c3ccccc3)nc21		> 100	> 100 µM	> 100 µM	> 100 µM	> 100	> 100 µM	> 100 µM	> 66.9	> 100									
CC(=O)Nc1ccc(/C=C/C(=O)c2sc(C(N)=S)nc2C)cc1	> 100	> 100	> 100 µM	> 100 µM	> 100 µM		> 100 µM	> 100 µM		> 100									
CNC1C(O)CC(OC2C/C=C(\C)C/C(C)=C/C=C/CCC(C)CNC(=O)/C=C/C=C/C2C)OC1C (stereo not drawn)	0.37		1.6 µM	0.261 µM	0.531 µM	0.773	1.02 µM	0.758 µM	0.668	3									
O=C(Cn1ccnc1[N+](=O)[O-])NCC(F)(F)C(F)(F)F		> 100	> 100 µM	> 100 µM	> 100 µM	> 100	> 100 µM		> 100	> 100	> 100 µM	> 100	> 100	> 100 µM	> 100	> 100	> 100		> 100
